One data set relates to MMP10. Kind of data set: EMT on target screen, MMP10 read-out. Type of data set: cell-based, human. Particulars: for OT MMP10 Screen Z-score 2: as E13, duplicate 2; for OT MMP10 Screen Z-score 1: robust Z-score, HBEC donor Br299, duplicate 1, cut-off Z ≦ −1.25.
In another data set the test system is Fibronectin (FN). Put plainly: EMT on target screen, FN read-out. The following applies: for OT FN Screen Z-score 2: as E11, duplicate 2; for Both (shRNA is a hit again in both OT assays, Yes/No): on target validation, Table 16; for OT FN Screen Z-score 1: robust Z-score, HBEC donor Br299, duplicate 1, cut-off Z ≦ −1.25. Type of data set: cell-based, human.

As for “46 (ACTTCTGAGAGGTCACAGC; chemistry not given here) [compound 46]”, in the data set with MMP10, the “OT MMP10 Screen Z-score 2” value is -2.42 and the “OT MMP10 Screen Z-score 1” value was -2.20. In the data set on Fibronectin (FN), the “OT FN Screen Z-score 2” value is -7.86; the “Both (shRNA is a hit again in both OT assays, Yes/No)” value is reported as “yes”; the “OT FN Screen Z-score 1” value is given as -8.84. Besides, in the data set with HBEC, the “OT CTB assay Z-score 1” value is -2.43 and the “OT CTB assay Z-score 2” value is listed as -5.13.
With “47 (GAACACGTACAAAGTCATT; chemistry not given here) [compound 47]”, in the data set with MMP10, the “OT MMP10 Screen Z-score 2” value is given as -6.24 and the “OT MMP10 Screen Z-score 1” value is -11.24. In addition, in the data set with Fibronectin (FN), the “OT FN Screen Z-score 2” value is listed as -5.03; the “Both (shRNA is a hit again in both OT assays, Yes/No)” value is listed as “no”; the “OT FN Screen Z-score 1” value is reported as -4.88. In addition, in the data set with HBEC, the “OT CTB assay Z-score 1” value was -7.55 and the “OT CTB assay Z-score 2” value is listed as -4.92.
Turning to “48 (GGATGGAGTTGGGAATCAC; chemistry not given here) [compound 48]”, in the data set on MMP10, the “OT MMP10 Screen Z-score 2” value is on record as -2.43 and the “OT MMP10 Screen Z-score 1” value is on record as -2.26. Moreover, in the data set with Fibronectin (FN), the “OT FN Screen Z-score 2” value was -3.44; the “Both (shRNA is a hit again in both OT assays, Yes/No)” value is reported as “yes”; the “OT FN Screen Z-score 1” value is reported as -3.28. In the data set on HBEC, the “OT CTB assay Z-score 1” value is given as -1.14 and the “OT CTB assay Z-score 2” value is recorded as -3.01.
“49 (GAGGATGCCATTAAGTATT; chemistry not given here) [compound 49]”: in the data set with MMP10, the “OT MMP10 Screen Z-score 2” value turned out to be 0.87 and the “OT MMP10 Screen Z-score 1” value stood at 0.57. Also, in the data set on Fibronectin (FN), the “OT FN Screen Z-score 2” value was -1.84; the “Both (shRNA is a hit again in both OT assays, Yes/No)” value is on record as “no”; the “OT FN Screen Z-score 1” value is given as -1.75. Moreover, in the data set on HBEC, the “OT CTB assay Z-score 1” value is reported as -0.78 and the “OT CTB assay Z-score 2” value is reported as -0.88.
Turning to “50 (GAGGCAGCCTTGTACTCTT; chemistry not given here) [compound 50]”, in the data set on MMP10, the “OT MMP10 Screen Z-score 2” value is given as -0.49 and the “OT MMP10 Screen Z-score 1” value was found to be 1.32. Besides, in the data set on Fibronectin (FN), the “OT FN Screen Z-score 2” value is listed as -4.42; the “Both (shRNA is a hit again in both OT assays, Yes/No)” value is on record as “no”; the “OT FN Screen Z-score 1” value is on record as -2.42. In addition, in the data set with HBEC, the “OT CTB assay Z-score 1” value is recorded as -0.51 and the “OT CTB assay Z-score 2” value turned out to be 2.33.
In the case of “51 (GGATCTTGGGTCCTATCCC; chemistry not given here) [compound 51]”, in the data set with MMP10, the “OT MMP10 Screen Z-score 2” value is -0.23 and the “OT MMP10 Screen Z-score 1” value is on record as -0.02. Moreover, in the data set on Fibronectin (FN), the “OT FN Screen Z-score 2” value was -3.08; the “Both (shRNA is a hit again in both OT assays, Yes/No)” value was “no”; the “OT FN Screen Z-score 1” value is recorded as -2.90. Besides, in the data set with HBEC, the “OT CTB assay Z-score 1” value is -0.73 and the “OT CTB assay Z-score 2” value was -2.03.
On to “52 (TGAATACTATGTGGGATTC; chemistry not given here) [compound 52]”, for which, in the data set with MMP10, the “OT MMP10 Screen Z-score 2” value was 0.95 and the “OT MMP10 Screen Z-score 1” value is 1.96. Also, in the data set on Fibronectin (FN), the “OT FN Screen Z-score 2” value is -3.74; the “Both (shRNA is a hit again in both OT assays, Yes/No)” value is “yes”; the “OT FN Screen Z-score 1” value is recorded as -3.30. Besides, in the data set on HBEC, the “OT CTB assay Z-score 1” value was -3.43 and the “OT CTB assay Z-score 2” value is reported as -3.45.
Take “53 (TCAGCTGGGCGCTATGTTC; chemistry not given here) [compound 53]”: in the data set on MMP10, the “OT MMP10 Screen Z-score 2” value is listed as 0.45 and the “OT MMP10 Screen Z-score 1” value is listed as -0.41. Besides, in the data set on Fibronectin (FN), the “OT FN Screen Z-score 2” value is on record as -2.98; the “Both (shRNA is a hit again in both OT assays, Yes/No)” value is on record as “no”; the “OT FN Screen Z-score 1” value is -3.01. Further, in the data set with HBEC, the “OT CTB assay Z-score 1” value is recorded as -3.97 and the “OT CTB assay Z-score 2” value was -4.28.
“54 (GACTGGAAAGCGACGGGTC; chemistry not given here) [compound 54]”: in the data set on MMP10, the “OT MMP10 Screen Z-score 2” value is on record as 0.94 and the “OT MMP10 Screen Z-score 1” value was 0.62. In the data set on Fibronectin (FN), the “OT FN Screen Z-score 2” value is -3.15; the “Both (shRNA is a hit again in both OT assays, Yes/No)” value was “no”; the “OT FN Screen Z-score 1” value was -3.47. Besides, in the data set on HBEC, the “OT CTB assay Z-score 1” value is -4.02 and the “OT CTB assay Z-score 2” value is recorded as -5.83.
As for “55 (AGGCTCACTTGCCTTTGGC; chemistry not given here) [compound 55]”, in the data set on MMP10, the “OT MMP10 Screen Z-score 2” value came to 0.18 and the “OT MMP10 Screen Z-score 1” value is 0.92. In addition, in the data set with Fibronectin (FN), the “OT FN Screen Z-score 2” value was -6.07; the “Both (shRNA is a hit again in both OT assays, Yes/No)” value is “yes”; the “OT FN Screen Z-score 1” value is listed as -4.43. In the data set with HBEC, the “OT CTB assay Z-score 1” value is listed as -4.29 and the “OT CTB assay Z-score 2” value is recorded as -8.29.
Regarding “56 (TGATGGTTACCGCAAGATC; chemistry not given here) [compound 56]”, in the data set on MMP10, the “OT MMP10 Screen Z-score 2” value is -5.05 and the “OT MMP10 Screen Z-score 1” value is -3.35. Further, in the data set with Fibronectin (FN), the “OT FN Screen Z-score 2” value was -3.69; the “Both (shRNA is a hit again in both OT assays, Yes/No)” value is given as “yes”; the “OT FN Screen Z-score 1” value is reported as -2.74. Also, in the data set with HBEC, the “OT CTB assay Z-score 1” value turned out to be 0.64 and the “OT CTB assay Z-score 2” value was -2.23.
For “57 (CCAAACCTGTGTCAACTTC; chemistry not given here) [compound 57]”, in the data set with MMP10, the “OT MMP10 Screen Z-score 2” value is reported as -1.94 and the “OT MMP10 Screen Z-score 1” value is reported as -0.60. In addition, in the data set with Fibronectin (FN), the “OT FN Screen Z-score 2” value is reported as -3.69; the “Both (shRNA is a hit again in both OT assays, Yes/No)” value is on record as “no”; the “OT FN Screen Z-score 1” value is reported as -8.59. In the data set on HBEC, the “OT CTB assay Z-score 1” value is -1.43 and the “OT CTB assay Z-score 2” value is reported as 0.38.
Take “58 (GATCCCAGCAGTTATAACA; chemistry not given here) [compound 58]”: in the data set on MMP10, the “OT MMP10 Screen Z-score 2” value is -3.41 and the “OT MMP10 Screen Z-score 1” value is listed as -3.06. In the data set with Fibronectin (FN), the “OT FN Screen Z-score 2” value is reported as -6.55; the “Both (shRNA is a hit again in both OT assays, Yes/No)” value is “no”; the “OT FN Screen Z-score 1” value was -2.47. In addition, in the data set on HBEC, the “OT CTB assay Z-score 1” value is reported as -4.03 and the “OT CTB assay Z-score 2” value was -2.02.
“59 (TGAAGGTCAAGAAGCCGGC; chemistry not given here) [compound 59]”: in the data set on MMP10, the “OT MMP10 Screen Z-score 2” value is on record as -1.19 and the “OT MMP10 Screen Z-score 1” value is reported as -1.71. For the same substance, in the data set on Fibronectin (FN), the “OT FN Screen Z-score 2” value was -8.92; the “Both (shRNA is a hit again in both OT assays, Yes/No)” value was “yes”; the “OT FN Screen Z-score 1” value was -6.20. Also, in the data set with HBEC, the “OT CTB assay Z-score 1” value was -6.59 and the “OT CTB assay Z-score 2” value is -4.59.
As for “60 (AACCTGGCCATTCAGACCC; chemistry not given here) [compound 60]”, in the data set with MMP10, the “OT MMP10 Screen Z-score 2” value is reported as -0.06 and the “OT MMP10 Screen Z-score 1” value is -1.88. Moreover, in the data set on Fibronectin (FN), the “OT FN Screen Z-score 2” value is listed as -2.96; the “Both (shRNA is a hit again in both OT assays, Yes/No)” value is listed as “yes”; the “OT FN Screen Z-score 1” value was -2.56. In the data set on HBEC, the “OT CTB assay Z-score 1” value is listed as -7.10 and the “OT CTB assay Z-score 2” value is reported as -2.00.
As to “61 (CAATTCCCAAGGACAGGCT; chemistry not given here) [compound 61]”, in the data set with MMP10, the “OT MMP10 Screen Z-score 2” value is -2.31 and the “OT MMP10 Screen Z-score 1” value is given as -2.21. In addition, in the data set with Fibronectin (FN), the “OT FN Screen Z-score 2” value is recorded as -1.44; the “Both (shRNA is a hit again in both OT assays, Yes/No)” value is “no”; the “OT FN Screen Z-score 1” value is given as -1.65. In the data set with HBEC, the “OT CTB assay Z-score 1” value was 0.59 and the “OT CTB assay Z-score 2” value was 0.86.

Values taken from patent US20160003808A1, “MOLECULAR TARGETS AND COMPOUNDS, AND METHODS TO IDENTIFY THE SAME, USEFUL IN THE TREATMENT OF DISEASES ASSOCIATED WITH EPITHELIAL MESENCHYMAL TRANSITION” (GALAPAGOS NV, priority 2013, published 2016).
